Each compound was assayed against thrombin (Homo sapiens, UniProt P00734) (assay: Fibrinogen clotting assay catalyzed by thrombin). Details: IC50, nM (25° C.), 25° C.; concentration needed to double the clotting time.
Assay type: biochemical
Description: Curves represent OD420 time course after the addition of 0.6 nM thrombin in the presence of (♦) 0 nM; (◯) 0.5 nM; (□) 1 nM; (Δ) 1.5 nM; (⋄) 2.5 nM; (●) 3.75 nM; (▪) 6.25 nM; and (▴) […] of the inhibitor with linker (GS)n and n=2 (SEQ. ID. NO. 50) (a); n=4 (SEQ. ID. NO. 51) (b); n=6 (SEQ. ID. NO. 52) (c); n=8 (SEQ. ID. NO. 53) (d); n=10 (SEQ. ID. NO. 54) (e); and in the presence of (♦) 0 nM; (◯) 1 nM; (□) 2 nM; (Δ) 4 nM; (⋄) 6 nM; (●) 10 nM; (▪) 15 nM; and (▴) 25 nM of the inhibitor with linker (GS)n and n=12 (SEQ. ID. NO. 55) (f); n=14 (SEQ. ID. NO. 56) (g), at 37° C. The onset clotting time was determined as an intersection of the baseline and the extrapolated linear portion of the OD change curve. […] Curves (i) represent OD420 time course in the presence of (A) 0 nM; (◯) 1 nM; (□) 2 nM; (Δ) 4 nM; (⋄) 6 nM; and (●) 15 nM of the inhibitor with linker […] (SEQ. ID. NO. 103), at 37° C. […] represent OD420 time course in the presence of (◯) 0 nM; (□) 2 nM; (Δ) 4 nM; (⋄) 6 nM; (●) 8 nM; (▪) 10 nM; (▴) 12 nM; and (♦) 15 nM; of the inhibitor with linker […] (SEQ. ID. NO. 58) at 25° C. Curves (k) represent OD420 time course in the presence of (◯) 0 nM; (□) 0.5 nM; (Δ) 1 nM; (⋄) 2 nM; (●) 3 nM; (▪) 4 nM; (▴) 5 nM; and (♦) 6 nM; of the inhibitor with linker […] (SEQ. ID. NO. 105) at 37° C. Curves (I) represent OD420 time course in the presence of (◯) 0 nM; (□) 0.25 nM; (Δ) 0.5 nM; (⋄) 1 nM; (●) 1.5 nM; (▪) 2 nM; and (▴) 2.5 nM; of the inhibitor with linker […] (SEQ. ID. NO. 104) at 37° C. Curves (m) represent OD420 time course in the presence of (◯) 0 nM; (□) 2 nM; (Δ) 4 nM; (⋄) 6 nM; (●) 8 nM; (▴) 10 nM; and (A) 12 nM; of the inhibitor with linker […] (SEQ. ID. NO. 106) at 37° C. Curves (n) represent OD420 time course in the presence of (◯) 0 nM; (□) 1 nM; (Δ) 2 nM; (⋄) 3 nM; (●) 4 nM; (▪) 5 nM; (▴) 6 nM; and (♦) 7 nM; of the inhibitor with linker […] (SEQ. ID. NO. 107) at 37° C. Curves (o) represent OD420 time course in the presence of (◯) 0 nM; (□) 4 nM; and (Δ) 8 nM; of the inhibitor with linker GQSHNR (SEQ. ID. NO. 108) at 37° C.
Other experimental conditions were as used for the assays described in FIG. 2.
Clotting assays were carried out by use of the protocols described previously (DiMaio and others, 1990, 21698-21703; Witting and others, 1992, 737-743). The assay employs bovine plasma fibrinogen dissolved at 0.1% in 50 mM Tris-Cl, 100 mM NaCl, 0.1% PEG-8000 at pH 7.6 (i.e. the clotting buffer). Each assay mixture contained a certain concentration of the peptide, and the reaction was started by the addition of human thrombin to a final concentration of 0.6-1.2 nM. Optical absorbance increase at 420 nm caused by fibrin clot formation was measured at 25° C. or 37° C. using the Spectramax plate reader. The onset clotting time was determined as an intersection of the baseline and the extrapolated linear portion of the OD change curve. The concentration of a peptide needed to double the clotting time was defined as IC50 (DiMaio and others, 1990, 21698-21703). Kinetic amidolytic curves were obtained in clotting buffer at 25° C. using eight inhibitor concentrations and three to five concentrations of the chromogenic substrate S-2238 (Chromogenix) (DiMaio and others, 1990, 21698-21703). Inhibition constants were extracted from Lineweaver-Burk equation by using weighted linear regression. Errors in Ki determination were estimated by using Monte-Carlo sampling with 1-3% variance of the experimental points.

Row | SMILES | IC50 [nM]
1 | CC[C@H](C)[C@H](NC(=O)[C@H](CCC(=O)O)NC(=O)[C@H](CCC(=O)O)NC(=O)[C@H](Cc1ccccc1)NC(=O)[C@H](CC(=O)O)NC(=O)CNC(=O)[C@H](CO)NC(=O)[C@@H](NC(=O)[C@H](CCCCN)NC(=O)[C@H](CCC(=O)O)NC(=O)[C@H](Cc1ccc(O)cc1)NC(=O)[C@H](Cc1c[nH]cn1)NC(=O)[C@@H]1CCCN1C(=O)[C@H](CO)NC(=O)CNC(=O)[C@H](CO)NC(=O)[C@@H](NC(=O)[C@H](CCCCN)NC(=O)[C@H](CCC(=O)O)NC(=O)[C@H](Cc1ccc(O)cc1)NC(=O)[C@H](Cc1c[nH]cn1)NC(=O)[C@@H]1CCCN1C(=O)[C@H](CO)NC(=O)CNC(=O)[C@H]1CCCCN1C(=O)[C@H](CCCNC(=N)N)NS(=O)(=O)c1ccc(C(C)(C)C)cc1)C(C)C)C(C)C)C(=O)N1CCC[C@H]1C(=O)N[C@@H](CCC(=O)O)C(=O)N[C@@H](CCC(=O)O)C(=O)N[C@@H](Cc1ccc(O)cc1)C(=O)N[C@@H](CC(C)C)C(=O)N[C@@H](CCC(N)=O)C(=O)O [P3161] | 0.7
2 | CC[C@H](C)[C@H](NC(=O)[C@H](CCC(=O)O)NC(=O)[C@H](CCC(=O)O)NC(=O)[C@H](Cc1ccccc1)NC(=O)[C@H](CC(=O)O)NC(=O)CNC(=O)[C@H](CO)NC(=O)[C@@H](NC(=O)[C@H](CCCCN)NC(=O)[C@H](CCC(=O)O)NC(=O)[C@H](Cc1ccc(OP(=O)(O)O)cc1)NC(=O)[C@H](Cc1c[nH]cn1)NC(=O)[C@@H]1CCCN1C(=O)[C@H](CO)NC(=O)CNC(=O)[C@H](CO)NC(=O)[C@@H](NC(=O)[C@H](CCCCN)NC(=O)[C@H](CCC(=O)O)NC(=O)[C@H](Cc1ccc(OP(=O)(O)O)cc1)NC(=O)[C@H](Cc1c[nH]cn1)NC(=O)[C@@H]1CCCN1C(=O)[C@H](CO)NC(=O)CNC(=O)[C@H]1CCCCN1C(=O)[C@H](CCCNC(=N)N)NS(=O)(=O)c1ccc(C(C)(C)C)cc1)C(C)C)C(C)C)C(=O)N1CCC[C@H]1C(=O)N[C@@H](CCC(=O)O)C(=O)N[C@@H](CCC(=O)O)C(=O)N[C@@H](Cc1ccc(O)cc1)C(=O)N[C@@H](CC(C)C)C(=O)N[C@@H](CCC(N)=O)C(=O)O [P3162] | 19 ± 1
3 | CC[C@H](C)[C@H](NC(=O)[C@H](CCC(=O)O)NC(=O)[C@H](CCC(=O)O)NC(=O)[C@H](Cc1ccccc1)NC(=O)[C@H](CC(=O)O)NC(=O)CNC(=O)[C@H](CO)NC(=O)CNC(=O)[C@H](CO)NC(=O)CNC(=O)[C@H](CO)NC(=O)CNC(=O)[C@H](CO)NC(=O)CNC(=O)[C@H](CO)NC(=O)CNC(=O)[C@H](CCCCN)NC(=O)CNC(=O)[C@H](CO)NC(=O)CNC(=O)[C@H](CO)NC(=O)CNC(=O)[C@H](CO)NC(=O)CNC(=O)[C@H](CO)NC(=O)CNC(=O)[C@H]1CCCCN1C(=O)[C@H](CCCNC(=N)N)NS(=O)(=O)c1ccc(C(C)(C)C)cc1)C(=O)N1CCC[C@H]1C(=O)N[C@@H](CCC(=O)O)C(=O)N[C@@H](CCC(=O)O)C(=O)N[C@@H](Cc1ccc(O)cc1)C(=O)N[C@@H](CC(C)C)C(=O)N[C@@H](CCC(N)=O)C(=O)O [P3174] | 1.6 ± 0.9

Same assay, conditions: IC50, nM (37° C.), 37° C.; concentration needed to double the clotting time

Row | SMILES | IC50 [nM]
4 | CC[C@H](C)[C@H](NC(=O)[C@H](CCC(=O)O)NC(=O)[C@H](CCC(=O)O)NC(=O)[C@H](Cc1ccccc1)NC(=O)[C@H](CC(=O)O)NC(=O)CNC(=O)[C@H](CO)NC(=O)CNC(=O)[C@H](CO)NC(=O)CNC(=O)[C@H]1CCCCN1C(=O)[C@H](CCCN=C(N)N)NS(=O)(=O)c1ccc(C(C)(C)C)cc1)C(=O)N1CCC[C@H]1C(=O)N[C@@H](CCC(=O)O)C(=O)N[C@@H](CCC(=O)O)C(=O)N[C@@H](Cc1ccc(O)cc1)C(=O)N[C@@H](CC(C)C)C(=O)N[C@@H](CCC(N)=O)C(=O)O [P3149] | 9.7 ± 0.7
5 | CC[C@H](C)[C@H](NC(=O)[C@H](CCC(=O)O)NC(=O)[C@H](CCC(=O)O)NC(=O)[C@H](Cc1ccccc1)NC(=O)[C@H](CC(=O)O)NC(=O)CNC(=O)[C@H](CO)NC(=O)CNC(=O)[C@H](CO)NC(=O)CNC(=O)[C@H](CO)NC(=O)CNC(=O)[C@H](CO)NC(=O)CNC(=O)[C@H](CO)NC(=O)CNC(=O)[C@H](CO)NC(=O)CNC(=O)[C@H](CO)NC(=O)CNC(=O)[C@H](CO)NC(=O)CNC(=O)[C@H]1CCCCN1C(=O)[C@H](CCCN=C(N)N)NS(=O)(=O)c1ccc(C(C)(C)C)cc1)C(=O)N1CCC[C@H]1C(=O)N[C@@H](CCC(=O)O)C(=O)N[C@@H](CCC(=O)O)C(=O)N[C@@H](Cc1ccc(O)cc1)C(=O)N[C@@H](CC(C)C)C(=O)N[C@@H](CCC(N)=O)C(=O)O [P3152] | 0.7 ± 0.1
6 | CC[C@H](C)[C@H](NC(=O)[C@H](CCC(=O)O)NC(=O)[C@H](CCC(=O)O)NC(=O)[C@H](Cc1ccccc1)NC(=O)[C@H](CC(=O)O)NC(=O)CNC(=O)[C@H](CO)NC(=O)CNC(=O)[C@H](CO)NC(=O)CNC(=O)[C@H](CO)NC(=O)CNC(=O)[C@H](CO)NC(=O)CNC(=O)[C@H](CO)NC(=O)CNC(=O)[C@H](CO)NC(=O)CNC(=O)[C@H](CO)NC(=O)CNC(=O)[C@H](CO)NC(=O)CNC(=O)[C@@H](N)CSSC[C@H](NC(=O)CNC(=O)[C@H]1CCCCN1C(=O)[C@H](CCCNC(=N)N)NS(=O)(=O)c1ccc(C(C)(C)C)cc1)C(=O)O)C(=O)N1CCC[C@H]1C(=O)N[C@@H](CCC(=O)O)C(=O)N[C@@H](CCC(=O)O)C(=O)N[C@@H](Cc1ccc(O)cc1)C(=O)N[C@@H](CC(C)C)C(=O)N[C@@H](CCC(N)=O)C(=O)O [P3172-P3165] | 1.1 ± 0.2
7 | CC[C@H](C)[C@H](NC(=O)[C@H](CCC(=O)O)NC(=O)[C@H](CCC(=O)O)NC(=O)[C@H](Cc1ccccc1)NC(=O)[C@H](CC(=O)O)NC(=O)CNC(=O)[C@H](CC(N)=O)NC(=O)[C@H](CO)NC(=O)[C@@H](NC(=O)[C@H](CCCCN)NC(=O)[C@H](CC(=O)O)NC(=O)[C@@H](NC(=O)[C@@H]1CCCN1C(=O)[C@@H](NC(=O)[C@H](CC(N)=O)NC(=O)[C@H](CC(C)C)NC(=O)[C@H](CC(=O)O)NC(=O)[C@H](CC(C)C)NC(=O)[C@@H](NC(=O)CNC(=O)[C@H]1CCCCN1C(=O)[C@H](CCCNC(=N)N)NS(=O)(=O)c1ccc(C(C)(C)C)cc1)[C@@H](C)O)[C@@H](C)O)C(C)C)[C@@H](C)O)C(=O)N1CCC[C@H]1C(=O)N[C@@H](CCC(=O)O)C(=O)N[C@@H](CCC(=O)O)C(=O)N[C@@H](Cc1ccc(O)cc1)C(=O)N[C@@H](CC(C)C)C(=O)N[C@@H](CCC(N)=O)C(=O)O [P3181] | 1.9 ± 0.2
8 | CC[C@H](C)[C@H](NC(=O)[C@H](CCC(=O)O)NC(=O)[C@H](CCC(=O)O)NC(=O)[C@H](Cc1ccccc1)NC(=O)[C@H](CC(=O)O)NC(=O)CNC(=O)[C@H](CC(=O)O)NC(=O)[C@H](CC(N)=O)NC(=O)[C@H](Cc1c[nH]cn1)NC(=O)[C@H](CC(C)C)NC(=O)[C@H](CCC(N)=O)NC(=O)[C@@H]1CCCN1C(=O)[C@H](CCCNC(=N)N)NC(=O)[C@@H]1CCCN1C(=O)[C@@H](NC(=O)[C@@H](NC(=O)[C@H](CO)NC(=O)CNC(=O)[C@H]1CCCCN1C(=O)[C@H](CCCNC(=N)N)NS(=O)(=O)c1ccc(C(C)(C)C)cc1)C(C)C)C(C)C)C(=O)N1CCC[C@H]1C(=O)N[C@@H](CCC(=O)O)C(=O)N[C@@H](CCC(=O)O)C(=O)N[C@@H](Cc1ccc(O)cc1)C(=O)N[C@@H](CC(C)C)C(=O)N[C@@H](CCC(N)=O)C(=O)O [P3209] | 1.1
